# Entries after “also recorded” stand apart in the source; their conditions may differ. Where no end group is shown, it is not given here.
# Columns and labels:
# [1] = test system: Human chondrosarcoma cells (SW1351); assay: Chondrosarcoma cell proliferation (CellTiter 96 Aqueous One, absorbance 490 nm); type: cell-based
# Method: Human chondrosarcoma cells (SW1351) were purchased from the American Type Culture Collection (ATCC No. HTB-94). A frozen vial of cells was thawed by gentle agitation in a 37° C. water bath for about 2 minutes. The vial was decontaminated with 70% ethanol and the cells were transferred to a T75 flask containing pre-wanned Leibovitz's L-15 medium (ATCC Catalog No. 30-2008) with 10% fetal bovine serum. The culture as incubated at 37° C. until 80% confluence. The culture medium was removed and the cells were dissociated from the T75 flask using 3 ml 0.25% trypsin, 0.03 mM EDTA at 37° C. After incubation for 5 minutes, 8 ml culture medium was added to stop trypsinization. The cells were counted with trypan blue and then seeded in 96 well plates at a density of about 2500 cells/well.
# Six separate cell cultures were tested at each concentration of each peptide (n=6). Control cells received culture medium only.
# Cell cultures were then incubated at 37° C. in an atmosphere of 5% CO2. Cell proliferation was determined after 18 or 72 hr by using the CellTiter 96 Aqueous One Solution purchased from Promega (Catalog No. TB245). Briefly, the CellTiter solution was warmed up to room temperature. Twenty microliters of the solution was added to each well. Cells were incubated at 37° C. for 1-2 hours. The absorbance at 490 nm was then recorded using a 96 well plate reader. The data were statistically analyzed using a Student T test. Differences were considered significant at the level of p<0.05.
# pro-MMP-9 = pro-MMP-9 (Homo sapiens, UniProt P14780); assay: Anti-activation (anti-splicing) assay: conversion of pro-MMP-9 by stromilysin, HPLC; type: biochemical; conditions: 0.5 and 1.0 μM peptide, FIG. 12
# Method: The assay measured how much proenzyme was converted into mature matrix metalloproteinase. Proenzyme pro-MMP-9 (100 μg) was mixed with 0.5 μg of stromilysin in PBS. The reaction was incubated at 35° C. Aliquots were removed from the reaction over an 80 minute time course. […] The zero (injection) time point was a single peak that elutes from the column in approximately 750 seconds. This peak reduced in size as a function of time, and two new peaks appeared. The first peak eluted at approximately 800 seconds, and represented the mature form of MMP-9. The second peak eluted at approximately 1100 seconds, and corresponded to the N-terminal pro-domain fragment. Peak areas were determined by integrating over the elution profile, and the percent area changes were plotted.
# The first peak, eluting at approximately 700 seconds, is pro-MMP-9. As the splicing reaction proceeds, this peak decreases in intensity (as marked with the downwards arrow), and two new peaks appear. The first new peak, eluting at approximately 800 seconds, is mature and active MMP-9. The second new peak, eluting at approximately 1050 seconds, is the prodomain. As the splicing reaction proceeds, the intensity of these two peaks increases (as marked with the upwards arrows). When the reaction is complete, there is no detectable pro-MMP-9 remaining.
# MMP-9 = target: T1, MMP-9 (Homo sapiens, UniProt P14780); assay: Fluoresceinated collagen hydrolysis assay (fluorescein release); type: biochemical; conditions: extended time assay, FIG. 8
# T1 construct: Active MMP-9 enzyme was purchased from Calbiochem; purchased Calbiochem
# Method: Two enzymatic assays were performed. The first assay measured the enzymatic hydrolysis of fluoresceinated collagen by MMP-9 as a function of time. […] The protein mixture was added to the collagen substrate, and was quickly mixed. Fluorescence emission intensity at 520 nm was measured as a function of time (excitation wavelength 495 nm) in a Shimadzu RF5301 fluorimeter (Lakowicz, 1983). The fluorescein release assay was used to determine the inhibitory constant (Ki) of the peptide inhibitor ([I]) according to Segel (1993) via the use of Dixon plots (1/v vs. [I]), such that: slope=Km /(V max Ki [S]) (1) where Km is the Michaelis constant, Vmax is the reaction maximum velocity, and [S] is the substrate concentration.
# C57BL6/KsJ db/db mice = assay: Wound healing in db/db diabetic mice; type: in vivo; conditions: single dose 5 μL of 20 μg/mL at day zero, saline control 14 days
# Text: Wounds were created in C57BL6/KsJ db/db mice with a 4 mm biopsy punch. The mice were obtained from The Jackson Laboratories and were aged 3-7 months before the onset of the wounding protocol. All mice were anesthetized prior to wounding. Two wounds were introduced onto the upper back of each animal by pulling the skin away from underlying structures and pushing the punch through the isolated skin. Typically, wounds were created to an average depth of 1.7 mm, with a range of 1.3 to 2.2 mm. No muscle involvement occurred during the course of wounding.
# Each day the wounds were digitally photographed and wound areas were determined by computer integration of the photographs. All wound treatments and the subsequent data analyses were performed in a blind manner (see e.g., Brown et al., 1994). Wound area at the time of wounding (day 0) was arbitrarily set to a relative value of 1 for all wounds; such that subsequent wound areas were converted to relative wound areas by dividing the wound area at day n by the wound area at day zero.
# T1 sequence (P14780 107-707 limits assumed): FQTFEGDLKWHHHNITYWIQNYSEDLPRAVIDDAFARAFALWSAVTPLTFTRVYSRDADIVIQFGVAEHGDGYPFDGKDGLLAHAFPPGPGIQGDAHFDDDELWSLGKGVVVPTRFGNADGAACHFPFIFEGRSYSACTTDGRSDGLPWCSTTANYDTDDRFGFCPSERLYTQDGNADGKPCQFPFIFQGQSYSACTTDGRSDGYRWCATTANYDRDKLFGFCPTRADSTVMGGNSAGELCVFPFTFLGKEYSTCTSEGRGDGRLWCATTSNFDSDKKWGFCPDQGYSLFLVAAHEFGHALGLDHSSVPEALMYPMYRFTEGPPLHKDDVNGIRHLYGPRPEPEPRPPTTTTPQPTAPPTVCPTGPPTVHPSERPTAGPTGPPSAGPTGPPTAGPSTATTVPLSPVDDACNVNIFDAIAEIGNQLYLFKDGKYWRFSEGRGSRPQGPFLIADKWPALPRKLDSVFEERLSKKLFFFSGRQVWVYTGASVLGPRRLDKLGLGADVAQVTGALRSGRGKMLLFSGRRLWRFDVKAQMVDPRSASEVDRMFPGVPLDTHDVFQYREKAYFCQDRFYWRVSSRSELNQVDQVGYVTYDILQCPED
# Chain of pro-MMP-9 (P14780 20-707): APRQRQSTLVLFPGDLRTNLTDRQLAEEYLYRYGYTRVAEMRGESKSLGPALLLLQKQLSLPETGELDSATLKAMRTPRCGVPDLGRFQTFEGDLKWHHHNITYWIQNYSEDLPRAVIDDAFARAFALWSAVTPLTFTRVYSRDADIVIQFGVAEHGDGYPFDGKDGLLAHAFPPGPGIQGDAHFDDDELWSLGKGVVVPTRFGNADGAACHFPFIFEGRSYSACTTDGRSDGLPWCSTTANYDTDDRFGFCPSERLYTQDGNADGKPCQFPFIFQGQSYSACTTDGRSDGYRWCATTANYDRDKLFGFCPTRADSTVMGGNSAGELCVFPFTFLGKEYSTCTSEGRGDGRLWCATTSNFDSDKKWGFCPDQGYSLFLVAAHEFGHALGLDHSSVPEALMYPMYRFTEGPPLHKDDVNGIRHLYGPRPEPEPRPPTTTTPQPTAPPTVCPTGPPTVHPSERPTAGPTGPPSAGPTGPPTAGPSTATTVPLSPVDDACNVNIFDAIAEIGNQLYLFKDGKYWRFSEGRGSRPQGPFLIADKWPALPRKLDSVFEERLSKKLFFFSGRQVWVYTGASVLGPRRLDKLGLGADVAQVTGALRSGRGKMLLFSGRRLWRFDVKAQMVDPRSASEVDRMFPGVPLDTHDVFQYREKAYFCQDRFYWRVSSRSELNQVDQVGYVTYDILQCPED
Compound,"chondrosarcoma cell proliferation vs untreated cells ([1]; 18 hours, 10^−4 M, p<0.05)","chondrosarcoma cell proliferation vs untreated cells ([1]; 72 hours, 10^−4 M, p<0.05)",inhibition of splicing (conversion of pro-MMP-9 into prodomain and active enzyme) (pro-MMP-9),period of time of effective inhibition of MMP-9 catalyzed hydrolysis of collagen (MMP-9) [min],time to full wound closure post wounding (C57BL6/KsJ db/db mice) [days],"chondrosarcoma cell proliferation vs untreated cells ([1]; 18 hr, three concentrations tested (10^−6, 10^−5, 10^−4 M))","chondrosarcoma cell proliferation vs untreated cells ([1]; 72 hours, 10^−5 M, p<0.05)"
CC(C)[C@H](NC(=O)[C@H](CC(=O)O)NC(=O)[C@@H]1CCCN1C(=O)[C@H](CC(N)=O)NC(=O)CNC(=O)[C@H](CS)NC(=O)[C@H](CCCNC(=N)N)NC(=O)[C@@H]1CCCN1)C(=O)N[C@@H](C)C(=O)N[C@@H](CC(N)=O)C(=O)N[C@@H](Cc1ccc(O)cc1)C(=O)N[C@@H](CC(N)=O)C(=O)N[C@@H](Cc1ccccc1)C(=O)N[C@@H](Cc1ccccc1)C(=O)N1CCC[C@H]1C(=O)N[C@@H](CCCNC(=N)N)C(=O)N[C@@H](CCCCN)C(=O)N1CCC[C@H]1C(=O)N[C@@H](CCCCN)C(=O)O [19-mer],significantly inhibits or depresses growth; also recorded: significantly inhibited,substantially less,inhibited in a dose dependent manner,> 1000,9,–,–
NYNFFPRKPK [10-mer],–,substantially less,–,–,–,did not show any significant effect,–
PRCGNPDVA [9-mer],significantly inhibits or depresses growth; also recorded: significantly inhibited,substantially less,–,–,–,–,significantly reduced
